Values of other authors in patent US6552066B1, “Protein tyrosine kinase inhibitors for treating osteoarthritis” (priority 1995, dated 2003).

Assays:
[1] = test system: progression of osteoarthritis; conditions: animals; cited from earlier work
bovine cartilage explant = conditions: cited from earlier work

SMILES: NC1=N/C(=C2/CCNC(=O)c3[nH]ccc32)C(=O)N1 [Z-debromohymenialdisine]
- progression of osteoarthritis [1]: slows the progression of osteoarthritis
- inhibition of cartilage degradation in the bovine cartilage explant assay (bovine cartilage explant): inhibit cartilage degradation
